Laboratory results taken from patent US11401236B2, “Resorcinol derivatives for their cosmetic use” (L'OREAL, priority 2017, dated 2022).
Values joined by “and” are separate entries in the source; they are usually repeats but may differ in a detail not shown here. Equal values may be shown once. Read-outs that look alike come from different tables or passages of the source. Each block holds one molecule with its values, some of them ahead of it.

Legend:
[1] = system: normal human melanocytes; assay: Depigmenting activity: reduction of melanin production in normal human melanocytes in vitro; assay type: cell-based; conditions: Melanocyte
Description: The measurement of the depigmenting activity (reduction of melanin production) of compounds of formula (I) was performed by assaying normal human melanocytes in vitro as follows.
First of all, normal human melanocytes were cultured and dispensed into 384 wells. After 24 hours, the culture medium was replaced with a medium containing compounds of formula (I) to be evaluated. The cells were incubated for 72 hours before measurement of the final optical density, which measures the amount of melanin produced by the melanocytes. A dose effect was performed using a wide concentration range of the compounds evaluated. Thus, by making the concentrations and the measurements of melanin correspond, it is possible to determine an IC50 in μM: concentration at which 50% decrease in melanin synthesis is achieved.

[2] = system: coculture of keratinocytes and melanocytes; assay: Modulatory effect on melanogenesis and cytotoxicity in a coculture of keratinocytes and melanocytes; assay type: cell-based; conditions: for IC50: melanin optical density, read-out: IC50 (concentration for which 50% of the melanin synthesis is inhibited)
Description: The modulatory effect on melanogenesis of each compound was measured according to the method described in the patent FR-A-2734825, and also in the article by R. Schmidt, P. Krien and M. Régnier, Anal. Biochem., 235(2), 113-18, 1996. This test is carried out on a coculture of keratinocytes and melanocytes. For the compounds tested, the following were determined: • the cytotoxicity, • the inhibitory activity on melanin synthesis, by estimating the melanin optical density, • the IC50 values (concentration for which 50% of the melanin synthesis is inhibited).

[3] = Stability of the compound (statement in the synthesis example); assay type: physicochemical; conditions: no conditions given
[4] = system: pigmented reconstructed epidermis; assay: Experiment on pigmented reconstructed epidermis (melanin versus solvent); assay type: cell-based
Source text: Experiment on pigmented reconstructed epidermis

[5] = Homo sapiens, 72 h, Table 3 test campaign, normal human melanocytes, 72 hours incubation, 50% decrease in melanin synthesis, maximum concentration tested 200 μM, read-out: IC50
[6] = Homo sapiens, prior-art comparison compounds, compared with the Table 2 results, melanin synthesis in normal human melanocytes, read-out: IC50 value
[7] = Table 2 test campaign, normal human melanocytes, 72 hours incubation, concentration at which 50% decrease in melanin synthesis is achieved, maximum concentration tested 200 μM, read-out: IC50

Compound: CCOC(=O)C(C)NC(=O)CCC(C)c1ccc(O)cc1O (racemic) [Compound 17, ethyl N-[4-(2,4-dihydroxyphenyl)pentanoyl]-DL-alaninate]
IC50 [1, 5]: 391 nM | cytotoxicity [2]: non-cytotoxic | IC50 [2]: 120 nM

Compound: CNC(=O)/C=C/c1ccc(O)cc1O [(A), reference compound]
IC50 [1, 6]: 3860 nM

Compound: COC(=O)CC(C)c1ccc(O)cc1O (centres unmarked) [(B), reference compound]
IC50 [1, 6]: 4970 nM

Compound: O=C(O)CCc1ccc(O)cc1O [(C), reference compound]
IC50 [1, 6]: 63100 nM

stability of the compound [3]: stable
Compound: CC(CCC(=O)O)c1ccc(O)cc1O (centres unmarked) [Compound 1, 4-(2,4-dihydroxyphenyl)pentanoic Acid]
IC50 [1, 7]: 4800 nM

Compound: CCNC(=O)CCC(C)c1ccc(O)cc1O (centres unmarked) [Compound 2, 4-(2,4-dihydroxyphenyl)-N-ethylpentanamide]
IC50 [1, 7]: 824 nM | depigmenting efficiency ([4]; comparison with lucinol): greater than lucinol | Comparison of melanin with respect to the solvent (DMSO) ([4]; effective concentration 50 μM): −26%

melting point: 60 to 65 °C and 56 °C
Compound: CC(C)NC(=O)CCC(C)c1ccc(O)cc1O (centres unmarked) [Compound 3, 4-(2,4-dihydroxyphenyl)-N-(propan-2-yl)pentanamide]
IC50 [1, 7]: 617 nM

Compound: CCCCNC(=O)CCC(C)c1ccc(O)cc1O (centres unmarked) [Compound 4, N-butyl-4-(2,4-dihydroxyphenyl)pentanamide]
IC50 [1, 7]: 692 nM

Compound: CCC(C)NC(=O)CCC(C)c1ccc(O)cc1O (centres unmarked) [Compound 5, N-(butan-2-yl)-4-(2,4-dihydroxyphenyl)pentanamide]
IC50 [1, 5]: 391 nM | IC50 [1, 7]: 447 nM

melting point: 75 to 78 °C
Compound: CC(CCC(=O)NC1CCCCC1)c1ccc(O)cc1O (centres unmarked) [Compound 6, N-cyclohexyl-4-(2,4-dihydroxyphenyl)pentanamide]
IC50 [1, 5]: 391 nM | IC50 [1, 7]: 557 nM | cytotoxicity [2]: non-cytotoxic | IC50 [2]: 140 nM

Compound: CC(CCC(=O)NCC1CCCCC1)c1ccc(O)cc1O (centres unmarked) [Compound 7, N-(cyclohexylmethyl)-4-(2,4-dihydroxyphenyl)pentanamide]
IC50 [1, 7]: 401 nM

Compound: CC(CCC(=O)NCCc1ccc(O)cc1)c1ccc(O)cc1O (centres unmarked) [Compound 8, 4-(2,4-dihydroxyphenyl)-N-[2-(4-hydroxyphenyl)ethyl]pentanamide]
IC50 [1, 7]: 391 nM

Compound: CC(CCC(=O)NCCO)c1ccc(O)cc1O (centres unmarked) [Compound 9, 4-(2,4-dihydroxyphenyl)-N-(2-hydroxyethyl)pentanamide]
IC50 [1, 7]: 636 nM

melting point: 54 to 56 °C
Compound: CC(CCC(N)=O)c1ccc(O)cc1O (centres unmarked) [Compound 10, 4-(2,4-dihydroxyphenyl)pentanamide]
IC50 [1, 7]: 1070 nM

Compound: CCNC(=O)CCC(C)c1ccc(OC(C)=O)cc1OC(C)=O (centres unmarked) [Compound 11, 4-[5-(ethylamino)-5-oxopentan-2-yl]benzene-1,3-diyl diacetate]
IC50 [1, 7]: 940 nM

melting point: 59 to 65 °C
Compound: CC(CCC(=O)NCC(=O)O)c1ccc(O)cc1O (centres unmarked) [Compound 14, N-[4-(2,4-dihydroxyphenyl)pentanoyl]glycine]
IC50 [1, 5]: 18500 nM

melting point: 48 to 50 °C
Compound: CCOC(=O)[C@H](C)NC(=O)CCC(C)c1ccc(O)cc1O (stereo partly drawn) [Compound 15, ethyl N-[4-(2,4-dihydroxyphenyl)pentanoyl]-L-alaninate]
IC50 [1, 7]: 1080 nM

melting point: 65 to 68 °C
Compound: CC(CCC(=O)N[C@H](C)C(=O)O)c1ccc(O)cc1O (stereo partly drawn) [Compound 18, N-[4-(2,4-dihydroxyphenyl)pentanoyl]-D-alanine]
IC50 [1, 7]: 1630 nM

melting point: 63 °C
Compound: COC(=O)[C@H](CC(C)C)NC(=O)CCC(C)c1ccc(O)cc1O (some centres unmarked) [Compound 20, methyl N-[4-(2,4-dihydroxyphenyl)pentanoyl]leucinate]
IC50 [1, 5]: 1200 nM | IC50 [1, 7]: 1580 nM

melting point: 51 to 59 °C
Compound: CCOC(=O)[C@H](Cc1ccccc1)NC(=O)CCC(C)c1ccc(O)cc1O (some centres unmarked) [Compound 22, ethyl N-[4-(2,4-dihydroxyphenyl)pentanoyl]phenylalaninate]
IC50 [1, 5]: 8330 nM

Compound: CCN(CC)C(=O)CCC(C)c1ccc(O)cc1O (centres unmarked) [Compound 24, 4-(2,4-dihydroxyphenyl)-N,N-diethylpentanamide]
IC50 [1, 7]: 1020 nM

melting point: 78 to 81 °C
Compound: COCCN(CCOC)C(=O)CCC(C)c1ccc(O)cc1O (centres unmarked) [Compound 25, 4-(2,4-dihydroxyphenyl)-N,N-bis(2-methoxyethyl)pentanamide]
IC50 [1, 5]: 5270 nM

Compound: CCN(CCO)C(=O)CCC(C)c1ccc(O)cc1O (centres unmarked) [Compound 26, 4-(2,4-dihydroxyphenyl)-N-ethyl-N-(2-hydroxyethyl)pentanamide]
IC50 [1, 7]: 1960 nM | cytotoxicity [2]: non-cytotoxic | IC50 [2]: 450 nM

Compound: CCOC(=O)CN(C)C(=O)CCC(C)c1ccc(O)cc1O (centres unmarked) [Compound 27, ethyl N-[4-(2,4-dihydroxyphenyl)pentanoyl]-N-methylglycinate]
IC50 [1, 5]: 51300 nM

Compound: CC(CCC(=O)N(C)CC(=O)O)c1ccc(O)cc1O (centres unmarked) [Compound 28, N-[4-(2,4-dihydroxyphenyl)pentanoyl]-N-methylglycine]
IC50 [1, 5]: 31100 nM

Compound: CC(CCC(=O)N1CCOCC1)c1ccc(O)cc1O (centres unmarked) [Compound 29, 4-(2,4-dihydroxyphenyl)-1-(morpholin-4-yl)pentan-1-one]
IC50 [1, 5]: 1820 nM | IC50 [1, 7]: 2940 nM

Compound: CCOC(=O)CCC(C)c1ccc(O)cc1O (centres unmarked) [Compound 30, ethyl 4-(2,4-dihydroxyphenyl)pentanoate]
IC50 [1, 7]: 1010 nM

Compound: CC(CCC(=O)OC[C@@H](O)[C@H](O)[C@@H](O)CO)c1ccc(O)cc1O (stereo partly drawn) [Compound 32, 5-O-[4-(2,4-dihydroxyphenyl)pentanoyl]-D-xylitol]
IC50 [1, 7]: 3030 nM

Compound: CC(CCC(=O)OCCCNC(=O)C1OC(C)(C)OCC1(C)C)c1ccc(O)cc1O (centres unmarked) [Compound 34, 3-{[(2,2,5,5-tetramethyl-1,3-dioxan-4-yl)carbonyl]amino}propyl 4-(2,4-dihydroxyphenyl)pentanoate]
IC50 [1, 7]: 2950 nM

Compound: CCCCc1ccc(O)cc1O [Lucinol, 4-n-butyl resorcinol, reference compound]
IC50 [2]: 790 nM | Comparison of melanin with respect to the solvent (DMSO) ([4]; effective concentration 500 μM): −25%
